Laboratory results published in patent US20250243220A1, “ATR INHIBITORS” (APREA THERAPEUTICS, INC., priority 2022, published 2025).

Columns and labels:
Assay type in all cases: cell-based
MEC (+APH) = test: MEC (+APH)
SKOV-3 = test: IC50 assay by Western blot (APH-treated cells), SKOV-3; conditions: SKOV-3 cells; for IC50: Homo sapiens, SK-OV-3
Method: (§1) E. Treatment of Cells for IC50 Assay by Western Blot
(§2) The compound is stored as a 1 mM stock solution prepared in accordance with the Receipt of Compound SOP. The stock solution is diluted in cell media in two separate 1:10 dilution series.
(§3) 1. Arrange twelve 15-mL centrifuge tubes in a rack in two series and label them in accordance with Dilutions Series 1 and Dilution Series 2 shown in Table 1 and Table 2, respectively.
(§4) 2. Place 2.5 mL of prewarmed cell media in each of the […]. Place 2.25 mL of prewarmed cell media in the remaining tubes.
(§5) 3. Add 7.5 μL of 1 mM compound stock solution in the 3 μM tube. Mix well.
(§6) 4. Add 2.5 μL of 1 mM compound stock solution in the 1 μM tube. Mix well.
(§7) 5. For each series (separately), remove 250 μL from the leftmost tube and transfer to the next tube to the right. Repeat for each tube until the series is complete.
(§8) 6. Set aside the 1 μM tube, the 3 μM tube, and the 300 nM tube for discard.
(§9) 7. The cells to be treated will be in 6-well plates labeled by cell line. Remove the cells from the incubator and label the wells with the dosages to be administered.
(§10) 8. Arrange the dilution tubes in the rack in a manner that reflects the 6-well plate arrangement so as to avoid confusion when administering the dosage solutions to the appropriate wells.
(§11) 9. Aspirate the three wells in the top row of the first plate (labeled NT, APH+, and APH+) and replace with 2 mL fresh media (without drug compound).
(§12) 10. Aspirate the three wells in the bottom row of the first plate and replace each well with 2 mL of solution from the appropriate tube.
(§13) 11. Repeat step 10 for the next row of wells (top row second plate). and then for the final row of wells (bottom row second plate).
(§14) 12. Place both plates into the incubator for 30 minutes.
(§15) 13. After 30 minutes have elapsed, remove the plates from the incubator.
(§16) 14. Acquire stock solution of APH (5 mM) and add 2 μL of the APH stock solution to the center of each well except the well labeled NT.
(§17) 15. Swirl the plates carefully and gently to diffuse the APH throughout each well.
(§18) 16. Place the plates back in the incubator for 4 hours, at which point the cells will be harvested for analysis.
(§19) 17. Twenty minutes before harvesting (or 3 hours and 40 minutes after administration of APH), turn on a heat block suitable to heat Eppendorf tubes. Set the temperature to 95° C.
(§20) 18. Set up a number of Eppendorf tubes equal to the number of wells treated (i.e., twelve per two-plate drug administration), and label each tube with cell line, compound administered, dosage level, and date. Leave the tubes open.
(§21) 19. Add 200 mL DI water to a beaker.
(§22) 20. After 4 hours, remove treated plates from incubator.
(§23) 21. Aspirate media from all wells.
(§24) 22. Wash each well with 2 mL 1×PBS and aspirate.
(§25) 23. Sterilize vacuum line with 70% ethanol by spraying some into the nozzle while the vacuum is engaged. Shut off vacuum.
(§26) 24. Add Laemmli buffer to each well. For HCT116 Bcl/xl, OVCAR-3, and 22RV1 cells, add 300 μL per well; for OVCAR-8 and SKOV-3 cells, add 250 μL per well.
(§27) 25. Scrape the first well thoroughly. Place the scraper into the DI water between uses.
(§28) 26. Transfer the lysed cell debris mixture to the first tube carefully. The mixture will be viscous. Use a 1000-μL pipettor. Close the tube.
(§29) 27. Repeat steps 25 and 26 for each well.
(§30) 28. When all wells have been harvested, place all the tubes into the heat block. Place a weighted, heat-resistant object on top of the tubes to keep them closed.
(§31) 29. After 5 minutes, remove the tubes from the heat block and turn it off. Vortex each tube for 10 seconds. Be cautious of tubes popping open.
(§32) 30. Allow the tubes to come to room temperature and proceed to further analysis or store frozen at −20° C.

OVCAR-8 = test: IC50 assay by Western blot (APH-treated cells), OVCAR-8; conditions: OVCAR-8 cells; for IC50: Homo sapiens
Method: as §1, §2, §3, §4, §5, §6, §7, §8, §9, §10, §11, §12, §13, §14, §15, §16, §17, §18, §19, §20, §21, §22, §23, §24, §25, §26, §27, §28, §29, §30, §31, §32

OVCAR-3 = test: IC50 assay by Western blot (APH-treated cells), OVCAR-3; conditions: OVCAR-3 cells; for IC50: Homo sapiens
Method: as §1, §2, §3, §4, §5, §6, §7, §8, §9, §10, §11, §12, §13, §14, §15, §16, §17, §18, §19, §20, §21, §22, §23, §24, §25, §26, §27, §28, §29, §30, §31, §32

22RV1 = test: IC50 assay by Western blot (APH-treated cells), 22RV1; conditions: 22RV1 cells; for IC50: Homo sapiens
Method: as §1, §2, §3, §4, §5, §6, §7, §8, §9, §10, §11, §12, §13, §14, §15, §16, §17, §18, §19, §20, §21, §22, §23, §24, §25, §26, §27, §28, §29, §30, §31, §32

HCT116 Bcl/xl = test: IC50 assay by Western blot (APH-treated cells), HCT116 Bcl/xl; conditions: for IC50: Homo sapiens, HCT-116
Method: as §1, §2, §3, §4, §5, §6, §7, §8, §9, §10, §11, §12, §13, §14, §15, §16, §17, §18, §19, §20, §21, §22, §23, §24, §25, §26, §27, §28, §29, §30, §31, §32

[1] = system: HCT Bcl/xl, OVCAR-3, OVCAR-8, SKOV-3, 22RV1 cell lines; test: Ave. IC50 across cell lines; conditions: average across cell lines

Structure (SMILES)	minimal effective concentration (MEC (+APH)) [µM]	IC50 (SKOV-3) [nM]	PALD (Percent Activity at Lowest Dose tested) SKOV-3 (SKOV-3)	IC50 (OVCAR-8) [nM]	PALD (Percent Activity at Lowest Dose tested) OVCAR-8 (OVCAR-8)	IC50 (OVCAR-3) [nM]	PALD (Percent Activity at Lowest Dose tested) OVCAR-3 (OVCAR-3)	PALD (Percent Activity at Lowest Dose tested) 22RV1 (22RV1)	IC50 (22RV1) [nM]	IC50 (HCT116 Bcl/xl) [nM]	PALD (Percent Activity at Lowest Dose tested) HCT Bcl/xl (HCT116 Bcl/xl)	IC50 [1] [nM]
CNCc1cccc2c1OCCCCCCC(C)(O)CC(C)(C)S(=O)(=O)c1ccc(cc1)-c1cnc(N)c(n1)C(=O)N2 (racemic) [Compound A, 5-amino-22-hydroxy-22,24,24-trimethyl-13-(methylaminomethyl)-25,25-dioxo-15-oxa-25λ^6-thia-4,8,31-triazatetracyclo[24.2.2.1^2,6.0^9,14]hentriaconta-1(28),2(31),3,5,9(14),10,12,26,29-nonaen-7-one]	2e-05	2.39	(88%)	1.68	(71%)	2.19	(111%)	(73%)	8.28	3.49	(74%)	3.61
CNCc1cccc2c1OCCCCCCC(C)(O)CC1(CC1)S(=O)(=O)c1ccc(cc1)-c1cnc(N)c(n1)C(=O)N2 (racemic) [Compound B, 5-amino-22-hydroxy-22-methyl-13-(methylaminomethyl)-25,25-dioxo-spiro[15-oxa-25λ^6-thia-4,8,31-triazatetracyclo[24.2.2.1^2,6.0^9,14]hentriaconta-1(28),2,4,6(31),9(14),10,12,26,29-nonaene-24,1′-cyclopropane]-7-one]	4e-05	2.62	(106%)	4.47	(94%)	2.15	(121%)	(141%)	2.99	4.63	(115%)	3.37
CC1(O)CCCCCCOc2c(CN)cccc2NC(=O)c2nc(cnc2N)-c2ccc(cc2)S(=O)(=O)C(C)(C)C1 (racemic) [Compound C, 5-amino-13-(aminomethyl)-22-hydroxy-22,24,24-trimethyl-25,25-dioxo-15-oxa-25λ^6-thia-4,8,31-triazatetracyclo[24.2.2.1^2,6.0^9,14]hentriaconta-1(28),2(31),3,5,9(14),10,12,26,29-nonaen-7-one]	1e-05	1.08	(100%)	6.8	(73%)	3.85	(158%)	(90%)	4.32	2.06	(65%)	3.6
CC1(C)C[C@@](C)(O)CCCCCCOc2c(CN)cccc2NC(=O)c2nc(cnc2N)-c2ccc(cc2)S1(=O)=O (single isomer, unassigned) [Compound C-1]	1e-05			3.63	(83%)	1.02	(115%)	(107%)	3.5	4.53	(72%)	2.7
CNCc1cccc2c1OCCCCCC[C@H](O)CC(C)(C)S(=O)(=O)c1ccc(cc1)-c1cnc(N)c(n1)C(=O)N2 (single isomer, unassigned) [Compound G-1]	4e-05			4.97	(85%)			(111%)	7.02	7.77	(115%)	
CNCc1cccc2c1OCCCCCC[C@@H](O)CC(C)(C)S(=O)(=O)c1ccc(cc1)-c1cnc(N)c(n1)C(=O)N2 (single isomer, unassigned) [Compound G-2]	4e-05	4.94	(92%)					(86%)	8.57	7.9	(83%)	
CC1(C)C[C@@H](O)CCCCCCOc2c(CN)cccc2NC(=O)c2nc(cnc2N)-c2ccc(cc2)S1(=O)=O (single isomer, unassigned) [Compound H-1]	4e-05							(71%)	7.84	4.46	(89%)	
CC1(C)C[C@H](O)CCCCCCOc2c(CN)cccc2NC(=O)c2nc(cnc2N)-c2ccc(cc2)S1(=O)=O (single isomer, unassigned) [Compound H-2]	2e-05									6.43	(89%)	
CN(C)Cc1cccc2c1OCCCCCCC(C)(O)CC(C)(C)S(=O)(=O)c1ccc(cc1)-c1cnc(N)c(n1)C(=O)N2 (stereo not drawn) [Compound E, 5-amino-13-[(dimethylamino)methyl]-22-hydroxy-22,24,24-trimethyl-25,25-dioxo-15-oxa-25λ^6-thia-4,8,31-triazatetracyclo[24.2.2.1^2,6.0^9,14]hentriaconta-1(28),2,4,6(31),9(14),10,12,26,29-nonaen-7-one]	8e-05			6.47	(139%)			(72%)	3.28	6.5	(91%)	
CN(C)Cc1cccc2c1OCCCCCCC(C)(O)CC1(CC1)S(=O)(=O)c1ccc(cc1)-c1cnc(N)c(n1)C(=O)N2 (stereo not drawn) [Compound F, 5-amino-13-[(dimethylamino)methyl]-22-hydroxy-22-methyl-25,25-dioxo-spiro[15-oxa-25λ^6-thia-4,8,31-triazatetracyclo[24.2.2.1^2,6.0^9,14]hentriaconta-1(28),2,4,6(31),9(14),10,12,26,29-nonaene-24,1′-cyclopropane]-7-one]	0.000156			31.5	(81%)	8.23	(86%)	(96%)	10.8	14.1	(104%)	
CN(C)Cc1cccc2c1OCCCCCCC(O)CC(C)(C)S(=O)(=O)c1ccc(cc1)-c1cnc(N)c(n1)C(=O)N2 (stereo not drawn) [Compound G, 5-amino-13-[(dimethylamino)methyl]-22-hydroxy-24,24-dimethyl-25,25-dioxo-15-oxa-25λ^6-thia-4,8,31-triazatetracyclo[24.2.2.1^2,6.0^9,14]hentriaconta-1(28),2(31),3,5,9(14),10,12,26,29-nonaen-7-one]	8e-05	2.64	(97%)			4.97	(83%)	(104%)	5.09	12.5	(109%)	
